Test results from ChEMBL document CHEMBL1201862, “PubChem BioAssay data set” (2004).
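Five concentrations, 48 hours, 96-well plates. The concentration for 50% growth inhibition is given as GI50.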 Activity calls are given as the source filed them. Cut-off read from the data, not from the text of the source: active = GI50 up to about 1.1 µM and inactive = higher.

Assays:
Experiment in all cases: growth of human tumour cells (NCI), 48 h
[1] = test system: 786-0
[2] = test system: A498
[3] = test system: A549
[4] = test system: ACHN
[5] = test system: BT-549
[6] = test system: CAKI-1
[7] = test system: CCRF-CEM
[8] = test system: COLO 205
[9] = test system: DU-145
[10] = test system: EKVX
[11] = test system: HCC 2998
[12] = test system: HCT-116
[13] = test system: HCT-15
[14] = test system: HL-60
[15] = test system: HOP-62
[16] = test system: HOP-92
[17] = test system: HT-29
[18] = test system: Hs-578T
[19] = test system: IGROV-1
[20] = test system: K562
[21] = test system: KM12
[22] = test system: LOX IMVI
[23] = test system: M14
[24] = test system: MCF7
[25] = test system: MDA-MB-231
[26] = test system: MDA-MB-435
[27] = test system: MOLT-4
[28] = test system: Malme-3M
[29] = test system: NCI-H226
[30] = test system: NCI-H23
[31] = test system: NCI-H460
[32] = test system: NCI-H522
[33] = test system: NCI/ADR-RES
[34] = test system: OVCAR-3
[35] = test system: OVCAR-4
[36] = test system: OVCAR-5
[37] = test system: OVCAR-8
[38] = test system: PC-3
[39] = test system: RPMI-8226
[40] = test system: RXF 393
[41] = test system: SF-268
[42] = test system: SF-295
[43] = test system: SF-539
[44] = test system: SK-MEL-28
[45] = test system: SK-MEL-2
[46] = test system: SK-MEL-5
[47] = test system: SK-OV-3
[48] = test system: SN12C
[49] = test system: SNB-19
[50] = test system: SNB-75
[51] = test system: SR
[52] = test system: SW-620
[53] = test system: T47D
[54] = test system: TK-10
[55] = test system: U-251
[56] = test system: UACC-257
[57] = test system: UACC-62
[58] = test system: UO-31
[59] = test system: MDA-N

CC(=O)OCC1OC(n2c(-c3cccs3)c3c(c(C#N)c2=S)-c2ccccc2CC3)C(OC(C)=O)C(OC(C)=O)C1OC(C)=O (stereo unspecified)
GI50 [1]: 9.27 µM (inactive)
GI50 [2]: 7.66 µM (inactive)
GI50 [3]: 13.2 µM (inactive)
GI50 [4]: 9.64 µM (inactive)
GI50 [5]: 11.7 µM (inactive)
GI50 [6]: 9.59 µM (inactive)
GI50 [7]: 9.91 µM (inactive)
GI50 [8]: 9.35 µM (inactive)
GI50 [9]: 23.9 µM (inactive)
GI50 [10]: 5.53 µM (inactive)
GI50 [11]: 8.73 µM (inactive)
GI50 [12]: 7.67 µM (inactive)
GI50 [13]: 8.26 µM
GI50 [14]: 2.64 µM (inactive)
GI50 [15]: 11.9 µM (inactive)
GI50 [16]: 2.51 µM (inactive)
GI50 [17]: 5.31 µM (inactive)
GI50 [18]: 7.52 µM (inactive)
GI50 [19]: 9.04 µM (inactive)
GI50 [20]: 4.37 µM (inactive)
GI50 [21]: 9.14 µM (inactive)
GI50 [22]: 6.82 µM (inactive)
GI50 [23]: 7.67 µM (inactive)
GI50 [24]: 6.01 µM (inactive)
GI50 [25]: 16.6 µM (inactive)
GI50 [26]: 2.77 µM (inactive)
GI50 [27]: 4.48 µM (inactive)
GI50 [28]: 7.36 µM (inactive)
GI50 [29]: 28.4 µM (inactive)
GI50 [30]: 19.5 µM (inactive)
GI50 [31]: 11.5 µM (inactive)
GI50 [32]: 10.7 µM (inactive)
GI50 [33]: 17.7 µM (inactive)
GI50 [34]: 10.4 µM (inactive)
GI50 [35]: 5.32 µM (inactive)
GI50 [36]: 26.5 µM (inactive)
GI50 [37]: 5.38 µM (inactive)
GI50 [38]: 9.04 µM (inactive)
GI50 [39]: 3.28 µM (inactive)
GI50 [40]: 8.28 µM (inactive)
GI50 [41]: 14.9 µM (inactive)
GI50 [42]: 13.7 µM (inactive)
GI50 [43]: 9.57 µM (inactive)
GI50 [44]: 13.7 µM (inactive)
GI50 [45]: 5.48 µM (inactive)
GI50 [46]: 6.18 µM (inactive)
GI50 [47]: 20.2 µM (inactive)
GI50 [48]: 20.2 µM (inactive)
GI50 [49]: 13 µM (inactive)
GI50 [50]: 1.36 µM (inactive)
GI50 [51]: 3.05 µM (inactive)
GI50 [52]: 15.5 µM (inactive)
GI50 [53]: 5.07 µM (inactive)
GI50 [54]: 6.19 µM (inactive)
GI50 [55]: 10.1 µM (inactive)
GI50 [56]: 12.8 µM (inactive)
GI50 [57]: 4.17 µM (inactive)
GI50 [58]: 2.97 µM (inactive)

C[C@@H]1CC[C@@H](C)[C@](C)(CCc2ccoc2)C/C=C\C=C/1C(=O)O
GI50 [1]: > 50 µM (inactive)
GI50 [2]: > 50 µM (inactive)
GI50 [3]: > 50 µM (inactive)
GI50 [4]: > 50 µM (inactive)
GI50 [5]: > 50 µM (inactive)
GI50 [6]: > 50 µM (inactive)
GI50 [7]: > 50 µM (inactive)
GI50 [8]: > 50 µM (inactive)
GI50 [10]: > 50 µM (inactive)
GI50 [11]: > 50 µM (inactive)
GI50 [12]: > 50 µM (inactive)
GI50 [13]: > 50 µM
GI50 [14]: 15.3 µM (inactive)
GI50 [15]: > 50 µM (inactive)
GI50 [16]: > 50 µM (inactive)
GI50 [17]: > 50 µM (inactive)
GI50 [18]: > 50 µM (inactive)
GI50 [19]: > 50 µM (inactive)
GI50 [20]: > 50 µM (inactive)
GI50 [21]: > 50 µM (inactive)
GI50 [22]: > 50 µM (inactive)
GI50 [23]: > 50 µM (inactive)
GI50 [24]: > 50 µM (inactive)
GI50 [25]: > 50 µM (inactive)
GI50 [59]: > 50 µM (inactive)
GI50 [27]: 31.8 µM (inactive)
GI50 [28]: > 50 µM (inactive)
GI50 [29]: > 50 µM (inactive)
GI50 [30]: 32.1 µM (inactive)
GI50 [31]: > 50 µM (inactive)
GI50 [33]: > 50 µM (inactive)
GI50 [34]: > 50 µM (inactive)
GI50 [35]: > 50 µM (inactive)
GI50 [36]: > 50 µM (inactive)
GI50 [37]: > 50 µM (inactive)
GI50 [38]: > 50 µM (inactive)
GI50 [40]: > 50 µM (inactive)
GI50 [42]: > 50 µM (inactive)
GI50 [43]: > 50 µM (inactive)
GI50 [44]: > 50 µM (inactive)
GI50 [45]: > 50 µM (inactive)
GI50 [46]: > 50 µM (inactive)
GI50 [47]: > 50 µM (inactive)
GI50 [48]: > 50 µM (inactive)
GI50 [49]: > 50 µM (inactive)
GI50 [50]: > 50 µM (inactive)
GI50 [51]: > 50 µM (inactive)
GI50 [52]: > 50 µM (inactive)
GI50 [54]: > 50 µM (inactive)
GI50 [55]: > 50 µM (inactive)
GI50 [56]: > 50 µM (inactive)
GI50 [57]: > 50 µM (inactive)
GI50 [58]: > 50 µM (inactive)
